Values of other authors, collected in patent US6977247B2, “Sequential therapy comprising a 20(S)-camptothecin and a pyrimidine base analog” (SuperGen, Inc., priority 2002, dated 2005).

Key:
[1] = tested on: various types of cancer, including primary cancer and metastasis; details: human, in vivo
[2] = tested on: human tumor xenografts
[3] = tested on: human colon cancer xenografts; details: mouse, in vivo
[4] = administered intravenously; studies abandoned

CC[C@@]1(O)C(=O)OCc2c1cc1n(c2=O)Cc2cc3c([N+](=O)[O-])cccc3nc2-1 [9NC, 9-nitrocamptothecin]
tumors known to regress after exposure [1]: breast carcinoma, ovarian carcinoma, cholangiocarcinoma, monomyelocytic leukemia, and pancreatic carcinoma | growth of human tumor xenografts ([2]; immunodeficient nude mice): inhibited the growth | regression of human tumors established as xenografts ([2]; nude mice): induced regression

CC[C@@]1(O)C(=O)OCc2c1cc1n(c2=O)Cc2cc3cc4c(cc3nc2-1)OCO4 [10, 2011 MD, 10, 2011-Methylendioxy-20(S)-Camptothecin]
anticancer activity against human colon cancer xenografts [3]: high anticancer activity

CC[C@@](O)(C(=O)[O-])c1cc2n(c(=O)c1CO)Cc1cc3ccccc3nc1-2.[Na+] [20(S)-camptothecin Na^+, sodium salt of 20(S)-camptothecin]
potency in clinical trials [4]: low potency | toxicity in clinical trials [4]: high toxicity

CC[C@@]1(O)C(=O)OCc2c1cc1n(c2=O)Cc2cc3c(N)cccc3nc2-1 [9AC, 9-Amino-20(S)-Camptothecin]
anticancer activity against human colon cancer xenografts [3]: high anticancer activity

CC[C@@]1(O)C(=O)OCc2c1cc1n(c2=O)Cc2cc3ccccc3nc2-1 [20(S)-camptothecin]
solubility in water: insoluble in water
